Test results as given in patent US20150125498A1, “NEW PARTICLE STABILIZED EMULSIONS AND FOAMS” (SPEXIMO AB, priority 2010, published 2015).

Tests used:
[1] = In vitro skin penetration of methyl salicylate in flow diffusion cell (Experiment 9); assay type: in vitro ADME, pig
Procedure: The emulsions contained 56% oil and 214 mg starch/ml oil (corresponding to sample M in experiment 8). The total volume was 7 ml and each experiment was performed in triplicate. Methyl salicylate, dissolved in the oil phase, was used as control substance for studying the permeability into the skin.
The skin diffusion measurement was performed in a flow cell by monitoring the transport of methyl salicylate from the three different topical formulations across pigskin membrane and silicone membrane under a flow of phosphate buffer with pH 6.8. The diffusion experiments were performed in seven-chamber diffusion cells at 32° C. and the donor and receptor phase were separated by a membrane with a diffusion area of 0.64 cm^2 (9 mm Ø). About 1 g of the emulsions (donor phase) were spread uniformly on the membranes. The cells were covered with parafilm to avoid evaporation. Buffer flowed through the pump (IsmatecIPN-16, L852) with a flow of 2 ml/h. Samples were collected every two hours during 12 hours and were analyzed using a spectrophotometer (Varian Carry 50Bio) at the detection wavelength for methyl salicylate (302 nm).

[2] = tested on: adult humans; conditions: cited from earlier work

In the case of `COC(=O)c1ccccc1O` [methyl salicylate, Methyl salicylate], the “Steady state flux of methyl salicylate” value ([1]; pig skin, 32° C., 56% oil starch Pickering emulsions) is given as “around 8 μg/(cm2*h)”, the “Flux compared with buffer solutions of the same methyl salicylate concentration” value ([1]; similar experimental set up observed previously) is given as “nearly two times higher” and the LD50 [2] is given as 500 mg/kg.
